Experiments:
Assay type in all cases: cell-based
[1] = system: human epithelial HeLa cells; experiment: HeLa cytotoxicity assay (CellTiter-Glo); settings: pCC50
In short: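 HeLa cells (5,000/well) stimulated with 10 nM IFN-γ, exposed to 11-point 3-fold compound dilutions for 2 days at 37 °C; viability by CellTiter-Glo ATP luminescence. Normalized to cell-free (100% cytotoxicity) and stimulated-cell DMSO (0%) controls; four-parameter fit gives pCC50.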

[2] = system: human peripheral blood mononuclear cells (PBMC); experiment: PBMC cytotoxicity assay (CellTiter-Glo); settings: 2 days, pCC50
In short: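 Human PBMC (50,000 cells/well) stimulated with IFN-γ 100 ng/ml and LPS 50 ng/ml were exposed to 11-point 3-fold compound dilutions for 2 days at 37 °C, 5% CO2. Viability read by CellTiter-Glo ATP luminescence and normalized to no-cell and stimulated-DMSO controls. XC50 derived by four-parameter fit.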

[3] = target: T1, indoleamine 2, 3-dioxygenase (IDO1) (Homo sapiens, UniProt P14902); experiment: IDO1 HeLa RapidFire MS assay (kynurenine detection by mass spectrometry); set-up: to induce the expression of indoleamine 2, 3-dioxygenase (IDO1); settings: HeLa cells, pIC50, read-out: IDO1_HELA_PXC50 (converted)
In short: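 Compound potency reported as pIC50 from kynurenine/internal-standard ratio (RapidFire MS) in supernatant of IFN-γ-induced (10 nM) HeLa cells, 5,000 per well, after 2 days' treatment with 11-point dilutions. Cytotoxicity in the same format by luminescent ATP detection, reported as pCC50.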

[4] = target: T1, indoleamine 2, 3-dioxygenase (IDO1); experiment: IDO1 PBMC RapidFire MS assay (kynurenine detection by mass spectrometry); set-up: to induce the expression of indoleamine 2, 3-dioxygenase (IDO1); host or cells: human PBMC stimulated with IFN-gamma and LPS; settings: human PBMC stimulated with IFN-γ and LPS, 2 days, pIC50, read-out: PBMC PXC50 (converted)
In short: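 PBMCs (50,000 cells/well) stimulated with IFN-γ 100 ng/ml plus LPS 50 ng/ml, treated with 11-point 3-fold compound series for 2 days at 37° C. Supernatant kynurenine measured by RapidFire MS, normalised to internal standard; parallel cytotoxicity by CellTiter-Glo luminescence; curves fitted for XC50.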

T1 sequence (P14902 whole entry): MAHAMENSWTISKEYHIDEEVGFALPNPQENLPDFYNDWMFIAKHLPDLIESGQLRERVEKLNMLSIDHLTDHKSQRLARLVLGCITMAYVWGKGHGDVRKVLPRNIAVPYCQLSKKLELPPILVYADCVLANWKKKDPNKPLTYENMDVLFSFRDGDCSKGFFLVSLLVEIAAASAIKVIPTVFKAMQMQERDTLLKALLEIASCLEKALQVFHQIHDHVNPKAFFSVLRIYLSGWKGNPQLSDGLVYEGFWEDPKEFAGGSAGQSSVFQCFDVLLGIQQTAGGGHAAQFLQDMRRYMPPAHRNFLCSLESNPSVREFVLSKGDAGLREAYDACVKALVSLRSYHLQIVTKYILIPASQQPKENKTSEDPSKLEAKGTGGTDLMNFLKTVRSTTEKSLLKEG

IC50 [3] | IC50 [4] | Structure (SMILES) | HELA_IDO1_TOX_PXC50 [1] | PBMC TOX PXC50 [2]
6.31 nM | 2 nM | CC(C)CN(c1ccc([C@H](C)CC(=O)O)cc1Nc1cnc(C#N)nc1)C1CCOCC1 [Example 17, (R)-3-(3-((2-cyanopyrimidin-5-yl)amino)-4-(isobutyl(tetrahydro-2H-pyran-4-yl)amino)phenyl)butanoic Acid] | <5 | <5
25.1 nM | 10 nM | CC(C)CN(CC(C)C)c1ccc(-c2ccccc2C(=O)O)cc1Nc1nc(C(F)(F)F)ns1 [Example 90, 4′-(diisobutylamino)-3′-((3-(trifluoromethyl)-1,2,4-thiadiazol-5-yl)amino)-[1,1′-biphenyl]-2-carboxylic Acid] | <5 | <5
20 nM | 31.6 nM | Cc1nnc(Nc2cc([C@H](C)CC(=O)O)ccc2N(CC(C)C)C2CCOCC2)s1 [example 215, (3R)-3-{3-[(5-methyl-1,3,4-thiadiazol-2-yl)amino]-4-[(2-methylpropyl)(oxan-4-yl)amino]phenyl}butanoic acid] | <5 | <5
251 nM | 39.8 nM | Cc1nnc(Nc2cc(-c3ccccc3C(=O)O)ccc2N(CC(C)C)CC(C)C)s1 [example 298, 4′-[bis(2-methylpropyl)amino]-3′-[(5-methyl-1,3,4-thiadiazol-2-yl)amino]-[1,1′-biphenyl]-2-carboxylic acid] | <5 | <5
398 nM | 200 nM | CC(C)CN(c1ccc([C@H](C)CC(=O)O)cc1NC1CCCC(C)(C)C1)C1CCCCC1 (stereo partly drawn) [example 183, (3R)-3-{4-[cyclohexyl(2-methylpropyl)amino]-3-[(3,3-dimethylcyclohexyl)ami-no]phenyl}butanoic acid] | <5 | <5
794 nM | 200 nM | COCc1nnc(Nc2cc([C@H](C)CC(=O)O)ccc2N(CC(C)C)C2CCOCC2)[nH]1 [example 213, (3R)-3-(3-{[5-(methoxymethyl)-4H-1,2,4-triazol-3-yl]amino}-4-[(2-methylpropyl)(oxan-4-yl)amino]phenyl)butanoic acid] | <5 | <5
3.98 nM | > 10000 nM | CO[C@H]1CC[C@@H](N(CC(C)C)c2ccc(-c3ccccc3C(=O)O)cc2Nc2nc(C(F)(F)F)ns2)CC1 [example 276, 4′-[(2-methylpropyl)[(1s,4s)-4-methoxycyclohexyl]ami-no]-3′-{[3-(trifluoromethyl)-1,2,4-thiadiazol-5-yl]amino}-[1,1′-biphenyl]-2-carboxylic acid] | <5 | <5
3.98 nM | 2.51 nM | CC(C)CN(c1ccc([C@H](C)CC(=O)O)cc1Nc1ccc(C(F)(F)F)cn1)C1CCCCC1 [Example 76, (R)-3-(4-(cyclohexyl(isobutyl)amino)-3-((5-(trifluoromethyl)pyridin-2-yl)amino)phenyl)butanoic Acid] | <5 | <5
200 nM | 63.1 nM | CC(C)CN(c1ccc(-c2ccccc2C(=O)O)cc1Nc1cccc(Cl)n1)C1CCCCC1 [example 266, 3′-[(6-chloropyridin-2-yl)amino]-4′-[cyclohexyl(2-methylpropyl)amino]-[1,1′-biphenyl]-2-carboxylic acid] | <5 | <5
5.01 nM | 2.51 nM | CC(C)CN(c1ccc([C@H](C)CC(=O)O)cc1Nc1cnc(C#N)cn1)C1CCOCC1 [Example 19, (R)-3-(3-((5-cyanopyrazin-2-yl)amino)-4-(isobutyl(tetrahydro-2H-pyran-4-yl)amino)phenyl)butanoic Acid] | <5 | <5
10 nM | 5.01 nM | CC(C)CN(c1ccc(C(C)OCC(=O)O)cc1Nc1ccc(C#N)cn1)C1CCCCC1 (stereo not shown) [Example 113, 2-(1-(3-((5-cyanopyridin-2-yl)amino)-4-(cyclohexyl(isobutyl)amino)phenyl)ethoxy)acetic Acid] | <5 | <5
31.6 nM | 20 nM | CC(C)CN(c1ccc(C(C)CC(=O)O)cc1NC1=N[C@@H](C(F)(F)F)CS1)C1CCCCC1 (stereo partly drawn) [example 154, 3-{4-[cyclohexyl(2-methylpropyl)amino]-3-{[(4S)-4-(trifluoromethyl)-4,5-dihydro-1,3-thiazol-2-yl]amino}phenyl}butanoic acid] | <5 | <5
158 nM | 31.6 nM | CC(C)CN(CC(C)C)c1ccc(C2CC2C(=O)O)cc1Nc1nc(Cl)ns1 (stereo not drawn) [example 177, (1R*,2R**)-2-{4-[bis(2-methylpropyl)amino]-3-[(3-chloro-1,2,4-thiadiazol-5-yl)amino]phenyl}cyclo-propane-1-carboxylic acid] | <5 | <5
1260 nM | 501 nM | CC(C)CN(c1ccc(-c2cnccc2C(=O)O)cc1Nc1nc2ccccc2o1)C1CCCCC1 [example 289, 3-{3-[(1,3-benzoxazol-2-yl)amino]-4-[cyclohexyl(2-methylpropyl)amino]phenyl}pyridine-4-carboxylic acid] | <5 | <5
3.16 nM | 2.51 nM | CC(C)CN(c1ccc(C2CC2C(=O)O)cc1Nc1nc(C(F)(F)F)ns1)C1CCCCC1 (single isomer, unassigned) [Example 104, 2-(4-(cyclohexyl(isobutyl)amino)-3-((3-(trifluoromethyl)-1,2,4-thiadiazol-5-yl)amino)phenyl)cyclopropanecarboxylic Acid] | <5 | <5
7.94 nM | 3.98 nM | CC(C)CN(c1ccc([C@H](C)CC(=O)O)cc1Nc1nnc(C(N)=O)s1)C1CCCCC1 [Example 81, (R)-3-(3-((5-Carbamoyl-1,3,4-thiadiazol-2-yl)amino)-4-(cyclohexyl(isobutyl)amino)phenyl)butanoic] | <5 | <5
2.51 nM | 1 nM | CC[C@H](CC(=O)O)c1ccc(N(CC(C)C)CC(C)C)c(Nc2nc(C(F)(F)F)ns2)c1 [Example 39, (R)-3-(4-(diisobutylamino)-3-((3-(trifluoromethyl)-1,2,4-thiadiazol-yl)amino)phenyl)pentanoic Acid] | <5 | <5
7.94 nM | 5.01 nM | CC(C)CN(c1ccc([C@H](C)Cc2nnn[nH]2)cc1Nc1nc(Cl)ns1)C1CCCCC1 [Example 102, (R)-4-(1-(1H-tetrazol-5-yl)propan-2-yl)-N^2-(3-chloro-1,2,4-thiadiazol-5-yl)-N^1-cyclohexyl-N^1-isobutylbenzene-1,2-diamine] | <5 | <5
10 nM | 7.94 nM | CC(C)CN(c1ccc([C@H](C)CC(=O)O)cc1Nc1ccc(Cl)nc1)[C@H]1CC[C@@H](O)CC1 [Example 58, (R)-3-(3-((6-chloropyridin-3-yl)amino)-4-(((1s,4S)-4-hydroxycyclohexyl) (isobutyl)amino)phenyl)butanoic Acid] | <5 | <5
